From patent publication US11702404B2, “GLP-1R modulating compounds” (priority 2019, dated 2023)
Read-outs that look alike come from different tables or passages of the source.

Assays:
GLP-1R = GLP-1R (Homo sapiens, UniProt P43220); assay: GLP-1R activation: cAMP increase in CHO cells stably expressing GLP-1R; type: cell-based; conditions: read-out: EC50
[1] = Microsomal stability, human liver microsomes (predicted hepatic clearance); conditions: predicted from in vitro microsomal stability data
[2] = cAMP increase, CHO cells stably expressing GLP-1R, 10 point dose response, 30 minutes incubation

Sequence of GLP-1R (P43220 24-463): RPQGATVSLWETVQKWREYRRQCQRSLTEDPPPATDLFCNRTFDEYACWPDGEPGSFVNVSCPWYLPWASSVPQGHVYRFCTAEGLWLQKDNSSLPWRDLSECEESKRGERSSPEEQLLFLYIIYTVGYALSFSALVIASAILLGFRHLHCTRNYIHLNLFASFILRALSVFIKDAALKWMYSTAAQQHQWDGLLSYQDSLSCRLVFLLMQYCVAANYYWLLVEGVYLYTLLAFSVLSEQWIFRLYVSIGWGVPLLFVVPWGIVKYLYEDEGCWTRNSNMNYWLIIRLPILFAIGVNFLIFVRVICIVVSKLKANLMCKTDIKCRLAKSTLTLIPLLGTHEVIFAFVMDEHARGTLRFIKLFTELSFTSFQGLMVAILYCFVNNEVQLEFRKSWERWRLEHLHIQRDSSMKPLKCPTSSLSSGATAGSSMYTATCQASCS

SMILES	EC50 (GLP-1R; [2]) [nM]	Predicted Hepatic Clearance (Pred. Cl.) [1] [mL/min/kg]	EC50 (GLP-1R) [nM]
COCCn1c(Cc2ccc(-c3cc(C(=O)O)cc(OCc4ccc(C#N)cc4F)n3)cc2F)nc2ccc(C(=O)O)cc21 [Example 97, 2-(4-(4-carboxy-6-((4-cyano-2-fluorobenzyl)oxy)pyridin-2-yl)-2-fluorobenzyl)-1-(2-methoxyethyl)-1H-benzo[d]imidazole-6-carboxylic acid]	2780	3.5	–
CO[C@@H]1COC[C@@H]1n1c(Cc2cc(F)c(-c3cccc(OCc4ccc(C#N)cc4F)n3)cc2F)nc2ccc(C(=O)O)cc21 [Example 711]	0.08	6.33	–
COCCn1c(Cc2ccc(-c3cccc(OCc4cnc(Cl)s4)n3)cc2F)nc2ccc(C(=O)O)cc21 [Example 593, 2-(4-(6-((2-chlorothiazol-5-yl)methoxy)pyridin-2-yl)-2-fluorobenzyl)-1-(2-methoxyethyl)-1H-benzo[d]imidazole-6-carboxylic acid]	145	8.3	–
O=C(O)c1cc(F)c2nc(Cc3ccc(-c4ccc(F)c(OCc5ccc(C(F)F)cc5F)n4)cc3F)n(C[C@@H]3CCO3)c2c1 [Example 774]	0.06	2.08	–
N#CCC1(Cn2c(Cc3ccc(-c4ccc(F)c(OCc5ccc(C#N)cc5F)n4)cc3F)nc3c(F)cc(C(N)=O)cc32)CC1 [Example 597, 2-(4-(6-((4-cyano-2-fluorobenzyl)oxy)-5-fluoropyridin-2-yl)-2-fluorobenzyl)-1-((1-(cyanomethyl)cyclopropyl)methyl)-4-fluoro-1H-benzo[d]imidazole-6-carboxamide]	13.8	9.83	–
O=C(O)c1ccc2nc(Cc3cc(F)c(-c4ccnc(OCc5ccc(Cl)cc5F)n4)cc3F)n(CC3(CF)CC3)c2c1 [Example 433, 2-(4-(2-((4-chloro-2-fluorobenzyl)oxy)pyrimidin-4-yl)-2,5-difluorobenzyl)-1-((1-(fluoromethyl)cyclopropyl)methyl)-1H-benzo[d]imidazole-6-carboxylic acid]	0.64	<1.83	–
N#Cc1cc(F)c(COc2ncc(F)c(-c3cc(F)c(Cc4nc5ccc(C(=O)O)cc5n4C[C@@H]4CCO4)cc3F)n2)cc1F [Example 878]	0.78	8.83	–
N#Cc1ccc(COc2ncccc2-c2cc(F)c(Cc3nc4ccc(C(=O)O)cc4n3CC3(CF)CC3)c(F)c2)c(F)c1 [Example 199, 2-(4-(2-((4-cyano-2-fluorobenzyl)oxy)pyridin-3-yl)-2,6-difluorobenzyl)-1-((1-(fluoromethyl)cyclopropyl)methyl)-1H-benzo[d]imidazole-carboxylic acid]	20.8	<1.83	–
COCCn1c(Cc2ccc(-c3cccc(OCc4ccccc4NC(=O)OC(C)(C)C)n3)cc2F)nc2ccc(C(=O)O)cc21 [Example 506, 2-(4-(6-((2-((tert-butoxycarbonyl)amino)benzyl)oxy)pyridin-2-yl)-2-fluorobenzyl)-1-(2-methoxyethyl)-1H-benzo[d]imidazole-6-carboxylic acid]	2180	12.5	–
COCCn1c(Cc2cnc(-c3cccc(OCc4ccc(C#N)cc4F)n3)cn2)nc2ccc(C(=O)O)cc21 [Example 102, 2-((5-(6-((4-cyano-2-fluorobenzyl)oxy)pyridin-2-yl)pyrazin-2-yl)methyl)-1-(2-methoxyethyl)-1H-benzo[d]imidazole-6-carboxylic acid]	56.5	5.17	–
N#Cc1ccc(COc2cccc(-c3cc(F)c(Cc4nc5ccc(C(=O)O)cc5n4CCOC4CC4)cc3F)n2)c(F)c1 [Example 629]	1.26	1.83	–
CO[C@@H](C)Cn1c(Cc2cc(F)c(-c3cccc(OCc4ccc(C#N)cc4F)n3)cc2F)nc2ccc(C(=O)O)cc21 [Example 587, (S)-2-(4-(6-((4-cyano-2-fluorobenzyl)oxy)pyridin-2-yl)-2,5-difluorobenzyl)-1-(2-methoxypropyl)-1H-benzo[d]imidazole-6-carboxylic acid]	2.15	6.83	–
O=C(O)c1ccc2nc(Cc3cc(F)c(-c4cccc(OCc5ccc(Cl)cc5F)n4)cc3F)n(CC3(CF)CC3)c2c1 [Example 432, 2-(4-(6-((4-chloro-2-fluorobenzyl)oxy)pyridin-2-yl)-2,5-difluorobenzyl)-1-((1-(fluoromethyl)cyclopropyl)methyl)-1H-benzo[d]imidazole-6-carboxylic acid]	2.01	<1.83	–
N#Cc1ccc(COc2cccc(-c3cc(F)c(Cc4nc5c(F)cc(C(=O)O)cc5n4C[C@@H]4CCCO4)cc3F)n2)c(F)c1 [Example 831]	0.24	2.83	–
COCCn1c(Cc2ccc(-c3cccc(OCc4ccc(F)cc4)n3)cc2F)nc2ccc(C(=O)O)cc21 [Example 256, 2-(2-fluoro-4-(6-((4-fluorobenzyl)oxy)pyridin-2-yl)benzyl)-1-(2-methoxyethyl)-1H-benzo[d]imidazole-6-carboxylic acid]	30.6	5.33	–
COCCn1c(Cc2cc(F)c(-c3cccc(OCc4ccc(C5=CCN(C(C)=O)CC5)cc4F)n3)cc2F)nc2ccc(C(=O)O)cc21 [Example 902, 2-(4-(6-((4-(1-acetyl-1,2,3,6-tetrahydropyridin-4-yl)-2-fluorobenzyl)oxy)pyridin-2-yl)-2,5-difluorobenzyl)-1-(2-methoxyethyl)-1H-benzo[d]imidazole-6-carboxylic acid]	6.19	8.67	–
COCCn1c(Cc2ccc(-c3cccc(NC(=O)c4ccccc4)n3)cc2F)nc2ccc(C(=O)O)cc21 [Example 116, 2-(4-(6-benzamidopyridin-2-yl)-2-fluorobenzyl)-1-(2-methoxyethyl)-1H-benzo[d]imidazole-6-carboxylic acid]	2520	7.33	–
COCCn1c(Cc2ccc(-c3cccc(OCc4ccc(C#N)cc4F)n3)cc2C2CC2)nc2ccc(C(=O)O)cc21 [Example 178, 2-(4-(6-((4-cyano-2-fluorobenzyl)oxy)pyridin-2-yl)-2-cyclopropylbenzyl)-1-(2-methoxyethyl)-1H-benzo[d]imidazole-6-carboxylic acid]	32.5	9.83	–
N#Cc1ccc(COc2cccc(-c3ccc(Cc4nc5ccc(C(=O)O)cc5n4C[C@@H]4CCN4C4COC4)c(F)c3)n2)c(F)c1 [Example 396, (S)-2-(4-(6-((4-cyano-2-fluorobenzyl)oxy)pyridin-2-yl)-2-fluorobenzyl)-1-((1-(oxetan-3-yl)azetidin-2-yl)methyl)-1H-benzo[d]imidazole-6-carboxylic acid]	–	8.67	45.5
CCOC(=O)c1ccc2nc(Cc3cc(F)c(-c4cccc(OCc5ccc(C#N)cc5F)n4)cc3F)n(CCOC)c2c1 [Example 847, Ethyl 2-(4-(6-((4-cyano-2-fluorobenzyl)oxy)pyridin-2-yl)-2,5-difluorobenzyl)-1-(2-methoxyethyl)-1H-benzo[d]imidazole-6-carboxylate]	537	6	–
